Results on 2 compounds are retold here after patent publication US10851096B2, “Aryl and heteroaryl amides for use as anti-proliferative, anti-thrombotic, and anti-viral agents” (Rutgers, The State University of New Jersey, priority 2016, dated 2020).

One data set has as its system MDA-MB-231 cells. Nature of the data set: Real-time migration assay (RTCA DP Xcelligence), MDA-MB-231. It is filed as cell-based, human. To be noted: Gas6-inducible MDA-MB-231 cells. As for the experimental part: H1299 and MDA-MB-231 cells lines were seeded in complete medium and allowed to attain ˜80% confluence and then serum starved overnight in medium containing 0.5% FBS. The cells were then detached by Accutase (Sigma), counted and resuspended in serum-free RPMI-1640 medium. In the lower chamber of the CIM plate, 1×RPMI-1640 containing 10% FBS was added as a chemoattractant. In the top chamber, 50 μl of 1×RPMI-1640 was added to all wells. Both chambers were assembled, loaded in the Xcelligence system, and run for 30 min for equilibration or background readings. One hundred microliters of each cell line suspended in 1×RPMI-1640 (40,000 cells/100 μl)±Gas6±small molecule inhibitors then were added in triplicates in upper chamber wells. Readings for changes in the cell index (CI) were taken every 10 min for 24 h and migration was shown as a change in cell index versus time.

The next data set has as its system H1299 cells. Nature of the data set: Gas6-inducible motility through transwell pore, H1299. It is filed as cell-based, human. To be noted: pretreatment of H1299 cells.
Data set [1] is described as follows: Toxicity and body weight in xenograft mice. The data set is classed as in vivo. To be noted: for body weights: 100 mg/kg, versus vehicle; for toxicity in cell culture or in vivo: up to highest dose tested 300 mg/kg IP. As for the experimental part: 500,000 H1299 cells in 100 μl of PBS were injected subcutaneously into the right flank of 4-6 week NOD/SCIDg mice. Once tumors were palpable, the mice were randomized into 3 groups, each group had 6 mice: control mice were treated with vehicle (DMSO) intraperitoneally (IP) and the treatment groups with compound 1I (day 1, day 2, day 3 and day 4) or with compound 1Q (day 1, day 2, day 3, day 4, day 7 and day 8) at a dose of 100 mg/kg IP. Similar studies were conducted on compound 1Q dosed at 300 mg/kg in mice. Tumor size and body weights were measured three times a week and the tumor volume calculated.

Data set [2] is described as follows: Venous thromboembolism (VTE) mouse model. The data set is classed as in vivo. To be noted: 200 mg/kg qd IP for three days.
The nature of data set [3]: Cancer associated VTE mouse model. To be noted: 200 mg/kg qd IP for three days. The data set is classed as in vivo.

On to `Cc1noc(C)c1CSc1ccccc1C(=O)N1CCN(c2cccc(C(F)(F)F)c2)CC1` [1I], for which the “motility (real-time, cell index)” value in the data set with MDA-MB-231 cells is “suppressed motility”. Further, in the data set on H1299 cells, the “Gas6-inducible motility through an 8 μm pore” value is “strongly suppressed”. Besides, in data set [1], the body weights result is given as “not significantly different” and the “toxicity in cell culture or in vivo” value is reported as “Neither compound 1I nor compound 1Q showed notable toxicity”.

Take `Cc1cc(CSc2ccccc2C(=O)NCCNc2ccc(C(F)(F)F)cc2[N+](=O)[O-])on1` [1Q]: the “motility (real-time, cell index)” value in the data set on MDA-MB-231 cells was “suppressed motility”. For the same compound, the “reduction in thrombus size” value in data set [2] is “approximately 37.3%”. Besides, the “reduction in thrombus size” value in data set [3] is 45%. For the same compound, the “Gas6-inducible motility through an 8 μm pore” value with H1299 cells was “strongly suppressed”. In data set [1], the body weights entry is “not significantly different” and the “toxicity in cell culture or in vivo” value is “Neither compound 1I nor compound 1Q showed notable toxicity”.
